The record followed here is patent US20140066431A1, “Benzoxazepines as Inhibitors of PI3K/mTOR and Methods of Their Use and Manufacture” (Exelixis, Inc., priority 2010, published 2014).

Each structure is given as a SMILES string.

The target in this assay is mTOR/GbL/Raptor (mTORC1) (Homo sapiens, UniProt P42345). Put plainly: mTOR/GbL/Raptor (mTORC1) ELISA assay. The conditions noted are these: 0.2 nM mTORC1, 10 μM ATP, 50 nM 4E-BP1. It counts as biochemical. The procedure:
The measurement of mTORC1 enzyme activity was performed in an ELISA assay format following the phosphorylation of 4E-BP1 protein. All experiments were performed in the 384-well format. Generally, 0.5 μL DMSO containing varying concentrations of the test compound was mixed with 15 μL enzyme solution. Kinase reactions were initiated with the addition of 15 μL of substrates-containing solution. The assay conditions were as follows; 0.2 nM mTORC1, 10 μM ATP and 50 nM NHis-tagged 4E-BP1 in 20 mM Hepes, pH 7.2, 1 mM DTT, 50 mM NaCl, 10 mM MnCl2, 0.02 mg/mL BSA, 0.01% CHAPS, 50 mM β-glycerophosphate. Following an incubation of 120 minutes at ambient temperature, 20 μL of the reaction volume was transferred to a Ni-Chelate-coated 384-well plate. The binding step of the 4E-BP1 protein proceeded for 60 minutes, followed by washing 4 times each with 50 μL of Tris-buffered saline solution (TBS). Anti-phospho-4E-BP1 rabbit-IgG (20 μL, 1:5000) in 5% BSA-TBST (0.2% Tween-20 in TBS) was added and further incubated for 60 minutes. Incubation with a secondary HRP-tagged anti-IgG was similarly performed after washing off the primary antibody (4 washes of 50 μL). Following the final wash step with TBST, 20 μL of SuperSignal ELISA Femto (Pierce Biotechnology) was added and the luminescence measured using an EnVision plate reader.
As to `Cc1nc2ccc(-c3ccc4c(c3)CN(C(=O)N3[C@@H]5CC[C@H]3C[C@@H](CO)C5)CCO4)cc2[nH]1` [compound 112, (8-{[7-(2-methyl-1H-benzimidazol-6-yl)-2,3-dihydro-1,4-benzoxazepin-4(5H)-yl]carbonyl}-8-azabicyclo[3.2.1]oct-3-(endo)-yl)methanol], the “IC50 (mTORC1 ELISA)” value is “not active”.

As to `Cc1nc2ccc(-c3ccc4c(c3)CN(C(=O)N3CCCCC3c3cc(C(F)(F)F)cc(C(F)(F)F)c3)CCO4)cc2[nH]1` (stereo not drawn) [compound 115, 4-({2-[3,5-bis(trifluoromethyl)phenyl]piperidin-1-yl}carbonyl)-7-(2-methyl-1H-benzimidazol-6-yl)-2,3,4,5-tetrahydro-1,4-benzoxazepine], the “IC50 (mTORC1 ELISA)” value was “not active”.

With `Cc1nc2ccc(-c3ccc4c(c3)CN(C(=O)N3CCC(O)(C(F)(F)F)CC3c3ccc(F)c(F)c3)CCO4)cc2[nH]1` (stereo not drawn) [compound 119, 2-(3,4-difluorophenyl)-1-{[7-(2-methyl-1H-benzimidazol-6-yl)-2,3-dihydro-1,4-benzoxazepin-4(5H)-yl]carbonyl}-4-(trifluoromethyl)piperidin-4-ol], the “IC50 (mTORC1 ELISA)” value is recorded as “not active”.

In the case of `Cc1nc2ccc(-c3ccc4c(c3)CN(C(=O)N3CCOCC3)CCO4)cc2[nH]1` [compound 132, 7-(2-methyl-1H-benzimidazol-6-yl)-4-(morpholin-4-ylcarbonyl)-2,3,4,5-tetrahydro-1,4-benzoxazepine], the “IC50 (mTORC1 ELISA)” value is recorded as “not active”.

On to `Cc1nc2ccc(-c3ccc4c(c3)CN(C(=O)N3CCN(C)CC3c3ccccc3)CCO4)cc2[nH]1` (stereo not drawn) [compound 144, 7-(2-methyl-1H-benzimidazol-6-yl)-4-[(4-methyl-2-phenylpiperazin-1-yl)carbonyl]-2,3,4,5-tetrahydro-1,4-benzoxazephin], for which the “IC50 (mTORC1 ELISA)” value is “not active”.

With `CCOC(=O)CN(Cc1ccccc1)C(=O)N1CCOc2ccc(-c3ccc4nc(C)[nH]c4c3)cc2C1` [compound 151, ethyl N-{[7-[2-methyl-1H-benzimidazol-6-yl)-2,3-dihydro-1,4-benzoxazepin-4(5H)-yl]carbonyl}-N-(phenylmethyl)glycinate], the “IC50 (mTORC1 ELISA)” value is on record as “not active”.

As to `Cc1nc2ccc(-c3ccc4c(c3)CN(C(=O)N3CCN(C(=O)c5ccco5)CC3)CCO4)cc2[nH]1` [compound 158, 4-{[4-(furan-2-ylcarbonyl)piperazin-1-yl]carbonyl}-7-(2-methyl-1H-benzimidazol-6-yl)-2,3,4,5-tetrahydro-1,4-benzoxazepine], the “IC50 (mTORC1 ELISA)” value is reported as “not active”.

`Cc1nc2ccc(-c3ccc4c(c3)CN(C(=O)N3CCN(c5ccc([N+](=O)[O-])cc5)CC3)CCO4)cc2[nH]1` [compound 168, 7-(2-methyl-1H-benzimidazol-6-yl)-4-{[4-(4-nitrophenyl)piperazin-1-yl]carbonyl}-2,3,4,5-tetrahydro-1,4-benzoxazepine]: the “IC50 (mTORC1 ELISA)” value is on record as “not active”.

Regarding `CC(=O)c1ccc(N2CCN(C(=O)N3CCOc4ccc(-c5ccc6nc(C)[nH]c6c5)cc4C3)CC2)cc1` [compound 169, 1-[4-(4-{[7-(2-methyl-1H-benzimidazol-6-yl)-2,3-dihydro-1,4-benzoxazepin-4(5H)-yl]carbonyl}piperazin-1-yl)phenyl]ethanone], the “IC50 (mTORC1 ELISA)” value was “not active”.
